Key:
[1] = test system: three-dimensional cultured human skin model (LSE-high, Toyobo Co., Ltd.); assay: Metabolism test by use of cultured human skin; assay type: in vitro ADME; settings: receptor phase PBS pH 7.4, 24 hours, 1.0 mass % in isopropyl myristate, 200 μL applied, 37° C.
Description: A sample of a three-dimensional cultured human skin model (LSE-high, Toyobo Co., Ltd.) was set in a vertical diffusion cell whose temperature was maintained at 37° C., and the receptor phase of the cell was filled with 7 mL isotonic phosphate buffer (PBS, pH 7.4). The cell was allowed to stand for one hour. Each of Inventive Compounds 1 to 3 and enalapril (serving as a Comparative Example) was dissolved or suspended in isopropyl myristate so as to attain a concentration of 1.0 mass %. The solution (200 μL) was applied to the skin sample, whereby the test started. When 24 hours had passed after the test started, the concentrations of proline esters or enalapril (i.e., a prodrug of enalaprilat) which remained unchanged, and the transformed product enalaprilat contained in PBS in the receptor phase were determined through HPLC. From the obtained data, concentration ratio of “proline esters or enalapril”: “enalaprilat” was calculated (presence ratio).

[2] = Stability test (storage in isopropyl myristate, HPLC peak area ratio); assay type: physicochemical
Description: About 5 mg of each of Inventive Compounds 1 to 5 and enalapril was put in a glass vial. Isopropyl myristate (100 μL) was added, to thereby yield a solution (or suspension). The vial was tightly sealed and stored in a 60° C. thermostatic chamber for one week. Methanol was added to the solution contained in the vial until the total volume of the solution mixture became 100 mL. The resultant solution was employed as a test solution to be subjected to an HPLC analysis. Peak area ratio (expressed by percentage) of each compound with respect to a sum of all the obtained peak areas was calculated.

[3] = in the skin and in the plasma; cited from earlier work
[4] = storage at 60° C. for 1 week, HPLC peak area ratio

Presence ratio: proline ester or enalapril (unchanged) part of concentration ratio [1] | Area ratio: Closed ring product [2, 4] [%] | Area ratio: Enalaprilat [2, 4] [%] | Area ratio: Proline ester compound [2, 4] [%] | Stability on storage (in words) ([2]; 60° C., one week) | Area ratio: Enalapril [2, 4] [%] | SMILES | Conversion of percutaneously absorbed enalapril to enalaprilat (in words) [3]
36.3 | 0.0 | 0.0 | 96.7 |  |  | C[C@H](N[C@@H](CCc1ccccc1)C(=O)O)C(=O)N1CCC[C@H]1C(=O)OCCCO [Inventive Compound 2, 1-[N-[(1S)-1-Carboxy-3-phenylpropyl]-L-alanyl]-L-proline 3-hydroxypropyl ester] | 
23.5 | 0.0 | 0.0 | 91.8 |  |  | C[C@H](N[C@@H](CCc1ccccc1)C(=O)O)C(=O)N1CCC[C@H]1C(=O)OCCO [Inventive Compound 1, 1-[N-[(1S)-1-Carboxy-3-phenylpropyl]-L-alanyl]-L-proline 2-hydroxyethyl ester] | 
98.8 | 48.4 | 0.0 |  | completely degraded | 0.0 | CCOC(=O)[C@H](CCc1ccccc1)N[C@@H](C)C(=O)N1CCC[C@H]1C(=O)O [Enalapril, reference compound] | not converted to enalaprilat
30.4 | 0.0 | 0.0 | 94.4 |  |  | C[C@H](N[C@@H](CCc1ccccc1)C(=O)O)C(=O)N1CCC[C@H]1C(=O)OCCCCO [Inventive Compound 3, 1-[N-[(1S)-1-Carboxy-3-phenylpropyl)-L-alanyl]-L-proline 4-hydroxybutyl ester] | 
 | 0.0 | 0.0 | 99.1 |  |  | COCCOC(=O)[C@@H]1CCCN1C(=O)[C@H](C)N[C@@H](CCc1ccccc1)C(=O)O [Inventive Compound 4, 1-[N-[(1S)-1-Carboxy-3-phenylpropyl]-L-alanyl]-L-proline 2-methoxyethyl ester] | 
 | 0.0 | 0.0 | 94.2 |  |  | COCCOCCOC(=O)[C@@H]1CCCN1C(=O)[C@H](C)N[C@@H](CCc1ccccc1)C(=O)O [Inventive Compound 5, 1-[N-[(1S)-1-Carboxy-3-phenylpropyl]-L-alanyl]-L-proline 2-(2-methoxyethoxy)ethyl ester] | 
